Read-outs that look alike come from different tables or passages of the source.
Experiments:
[1] = system: TNFα production in human whole blood; assay: Inhibition of the production of TNFα in vitro in human whole blood (Test Examples 1 and 1′); format: cell-based; details: 6 hours at 37° C., plasma TNFα by ELISA
Protocol: (§1) Inhibition of the Production of the Cytokines IL-1β and TNFα in Vitro in Human Whole Blood
(§2) This test was performed according to the method of Hartman, et al. [D. A. Hartman, S. J. Ochalski and R. P. Carlson; The effects of anti-inflammatory and antiallergic drugs on cytokine release after stimulation of human whole blood by lipopolysaccharide and zymosan A: Inflamm. Res., 44, 269 (1995)].
(§3) Peripheral blood samples were collected in the presence of heparin from healthy adult volunteers. 1000 μl of whole blood were added to an Eppendorf tube to which 2 μl of a dimethyl sulfoxide solution of the test compound had been added in advance, after which 10 μl of lipopolysaccharide (E. coli 026: B6 origin, Difco) were added as a stimulant (final concentration of said lipopolysaccharide: 10 μg/ml). This was mixed well and then incubated for 6 hours at 37° C. in the presence of 5% CO2. At the end of the incubation, the mixture was cooled to 4° C. to stop the reaction, followed immediately by centrifuging for 5 minutes at 14,000 rpm to separate and collect the supernatant plasma. The IL-1β and TNFα produced and released into the plasma were measured using a commercially available enzyme immunoassay (ELISA) kit [Cayman (IL-1β) and Genzyme (TNFα)]. The procedure was also repeated in the absence of test compound. The inhibitory effect [IC50 (μM)] on the production of IL-1β and TNFα was determined from the amounts of the cytokines produced in the presence and absence of the test compound.
(§4) Inhibition of the Production of the Cytokines IL-1β and TNFα In Vitro in Human Whole Blood
as §3, with “O26:” for “026:”, “plasma” for “plasma.”, “kits” for “kit”, “determined by the method of least squares” for “determined”

[2] = system: IL-1β production in human whole blood; assay: Inhibition of the production of IL-1β in vitro in human whole blood (Test Examples 1 and 1′); format: cell-based; details: Table 8′, lipopolysaccharide 10 μg/ml, 6 hours at 37° C., plasma IL-1β by ELISA, least squares, read-out: Inhibitory Effect on IL-1β Production (in vitro) IC50
Protocol: as §1, §2, §3, §4
as §3, with “O26:” for “026:”, “plasma” for “plasma.”, “kits” for “kit”, “determined by the method of least squares” for “determined”

[3] = Table 7′, lipopolysaccharide 10 μg/ml, least squares, read-out: Inhibitory Effect on TNFα Production (in vitro) IC50
[4] = Table 3, lipopolysaccharide 10 μg/ml, read-out: Inhibitory Effect on TNFα Production [IC50 (μM)]

SMILES	IC50 [1, 3] [µM]	IC50 [2] [nM]	IC50 [1, 4] [µM]
O[C@@H]1C[C@H]2C=C(c3c[nH]c(-c4ccc(F)cc4)c3-c3ccncc3)CCN2C1 [Example 4′, 2-(4-Fluorophenyl)-4-[(2R,8aS)-2-hydroxy-1,2,3,5,6,8a-hexahydroindolizin-7-yl]-3-(pyridin-4-yl)-1H-pyrrole]	0.054	41	
Fc1ccc(-c2[nH]cc(C3=C[C@@H]4CCCN4CC34CC4)c2-c2ccncc2)cc1 [Example 19′, 4-[Cyclopropanespiro-6′-[(8a′S)-1′,2′,3′,5′,6′,8a′-hexahydroindolizin]-7′-yl]-2-(4-fluorophenyl)-3-(pyridin-4-yl)-1H-pyrrole]	0.044	8.3	
CCCN1CCC(c2c[nH]c(-c3ccc(F)cc3)c2-c2ccncc2)=CC1C (racemic) [Example 85, (±)-2-(4-Fluorophenyl)-4-(6-methyl-1-propyl-1,2,3,6-tetrahydropyridin-4-yl)-3-(pyridin-4-yl)-1H-pyrrole]			0.44
Fc1ccc(-c2[nH]cc(C3=CC4CCC(C3)N4)c2-c2ccncc2)cc1 (racemic) [Example 45, (±)-4-(8-Azabicyclo[3.2.1]oct-2-en-3-yl)-2-(4-fluorophenyl)-3-(pyridin-4-yl)-1H-pyrrole]			0.14
FC(F)(F)c1cccc(-c2[nH]cc(C3=CC4CCCN4CC3)c2-c2ccncc2)c1 (racemic) [Example 94, (±)-4-(1,2,3,5,6,8a-Hexahydroindolizin-7-yl)-3-(pyridin-4-yl)-2-(3-trifluoromethylphenyl)-1H-pyrrole]			0.031
Fc1ccc(-c2[nH]cc(C3=CC4CC5(CCCC5)CN4CC3)c2-c2ccncc2)cc1 (racemic) [Example 47′, (±)-4-[Cyclopentanespiro-2′-(1′,2′,3′,5′,6′,8a′-hexahydroindolizin)-7′-yl]-2-(4-fluorophenyl)-3-(pyridin-4-yl)-1H-pyrrole]	0.01	33	
CO[C@@H]1C[C@H]2C=C(c3c[nH]c(-c4ccc(F)cc4)c3-c3ccncc3)CCN2C1 [Example 2′, 2-(4-Fluorophenyl)-4-[(2R,8aS)-2-methoxy-1,2,3,5,6,8a-hexahydroindolizin-7-yl]-3-(pyridin-4-yl)-1H-pyrrole]	0.062	31	
CS[C@H]1C[C@H]2C=C(c3c[nH]c(-c4ccc(F)cc4)c3-c3ccncc3)CCN2C1 [Example 29′, 2-(4-Fluorophenyl)-4-[(2S,8aS)-2-methylthio-1,2,3,5,6,8a-hexahydroindolizin-7-yl]-3-(pyridin-4-yl)-1H-pyrrole]	0.0036	1	
Fc1ccc(-c2[nH]c(C3CCNCC3)cc2-c2ccncc2)cc1 [Compound A, reference compound]	1.9		1.9
Fc1ccc(-c2[nH]cc(C3=CCN(CCc4ccccc4)CC3)c2-c2ccncc2)cc1 [Example 58, 2-(4-Fluorophenyl)-4-(1-phenethyl-1,2,3,6-tetrahydropyridin-4-yl)-3-(pyridin-4-yl)-1H-pyrrole]			0.089
CC=C1C[C@H]2C=C(c3c[nH]c(-c4ccc(F)cc4)c3-c3ccncc3)CCN2C1 [Example 37′, 4-[(8aS)-2-Ethylidene-1,2,3,5,6,8a-hexahydroindolizin-7-yl]-2-(4-fluorophenyl)-3-(pyridin-4-yl)-1H-pyrrole]	0.01	58	
CCS[C@H]1C[C@H]2C=C(c3c[nH]c(-c4ccc(F)cc4)c3-c3ccncc3)CCN2C1 [Example 36′, 4-[(2S,8aS)-2-Ethylthio-1,2,3,5,6,8a-hexahydroindolizin-7-yl]-2-(4-fluorophenyl)-3-(pyridin-4-yl)-1H-pyrrole]	0.018	26	
Fc1ccc(-c2[nH]cc(C3=C[C@@H]4C[C@H](Cl)CN4CC3)c2-c2ccncc2)cc1 [Example 6′, 4-[(2S,8aS)-2-Chloro-1,2,3,5,6,8a-hexahydroindolizin-7-yl]-2-(4-fluorophenyl)-3-(pyridin-4-yl)-1H-pyrrole]	0.027		
CC1(C)C[C@H]2C=C(c3c[nH]c(-c4ccc(F)cc4)c3-c3ccncc3)CCN2C1 [Example 27′]	0.0038	1.4	
C=C1C[C@H]2C=C(c3c[nH]c(-c4ccc(F)cc4)c3-c3ccncc3)CCN2C1 [Example 23′, 2-(4-Fluorophenyl)-4-[(8aS)-2-methylidene-1,2,3,5,6,8a-hexahydroindolizin-7-yl]-3-(pyridin-4-yl)-1H-pyrrole]	0.0037	3.8	
Fc1ccc(-c2[nH]cc(C3=CC4CCCN4CC3)c2-c2ccncc2)cc1 (racemic) [Example 60, (±)-2-(4-Fluorophenyl)-4-(1,2,3,5,6,8a-hexahydroindolizin-7-yl)-3-(pyridin-4-yl)-1H-pyrrole]			0.047
CO[C@H]1C[C@H]2C=C(c3c[nH]c(-c4ccc(F)cc4)c3-c3ccncc3)CCN2C1 [Example 21′, 2-(4-Fluorophenyl)-4-[(2S,8aS)-2-methoxy-1,2,3,5,6,8a-hexahydroindolizin-7-yl)-3-(pyridin-4-yl)-1H-pyrrole]	0.046	18	
Fc1ccc(-c2[nH]cc(C3=CC4CCCCN4CC3)c2-c2ccncc2)cc1 (racemic) [Example 87, (±)-2-(4-Fluorophenyl)-4-(1,3,4,6,7,9a-hexahydro-2H-quinolizin-8-yl)-3-(pyridin-4-yl)-1H-pyrrole]			0.31
Fc1ccc(-c2ncn(C3CCNCC3)c2-c2ccncc2)cc1 [Compound B, reference compound]	1.73		1.73
Fc1ccc(-c2[nH]cc(C3=CC4CCCN4CC3)c2-c2ccncc2)cc1F (racemic) [Example 92, (±)-2-(3,4-Difluorophenyl)-4-(1,2,3,5,6,8a-hexahydroindolizin-7-yl)-3-(pyridin-4-yl)-1H-pyrrole]			0.045
Fc1ccc(-c2[nH]cc(C3=C[C@@H]4CCCN4CC3)c2-c2ccncc2)cc1 [Example 83, (−)-2-(4-Fluorophenyl)-4-(1,2,3,5,6,8a-hexahydroindolizin-7-yl)-3-(pyridin-4-yl)-1H-pyrrole]			0.026
Fc1ccc(-c2[nH]cc(C3=C[C@@H]4CC5(CN4CC3)OCCO5)c2-c2ccncc2)cc1 [Example 14′, 4-[(8aS)-2,2-Ethylenedioxy-1,2,3,5,6,8a-hexahydroindolizin-7-yl]-2-(4-fluorophenyl)-3-(pyridin-4-yl)-1H-pyrrole]	0.004	9.2	
CCCN1CC=C(c2c[nH]c(-c3ccc(F)cc3)c2-c2ccncc2)CC1C (racemic) [Example 86, (±)-2-(4-Fluorophenyl)-4-(2-methyl-1-propyl-1,2,3,6-tetrahydropyridin-4-yl)-3-(pyridin-4-yl)-1H-pyrrole]			0.29
CCCCS[C@H]1C[C@H]2C=C(c3c[nH]c(-c4ccc(F)cc4)c3-c3ccncc3)CCN2C1 [Example 34′, 4-[(2S,8aS)-2-Butylthio-1,2,3,5,6,8a-hexahydroindolizin-7-yl)-2-(4-fluorophenyl)-3-(pyridin-4yl)-1H-pyrrole]	0.046	49	

From US7122666B2, “Heteroaryl-substituted pyrrole derivatives, their preparation and their therapeutic uses” (Sankyo Company, Limited, priority 1999, dated 2006)
